Patent US10226509B2, “Lymphangiogenesis inhibitors for cancer and for graft survival” (TUFTS UNIVERSITY, priority 2014, dated 2019)
Where two headings read alike, the source gives them in different places. Values belong to the molecule of their own block, whether it stands above or below them.

How the values were obtained:
VEGFR-3 = test: Affinity precipitation assay, VEGFR-3; assay type: binding, human; settings: 0.1 M sugar
Protocol: (§1) Five mg of plant lectins (Vector Labs) and galectins were conjugated to 330 mg of Pierce® NHS-activated agarose dry resin in accordance with the manufacturer's instructions (Thermo Scientific). Primary LECs (Lonza) were lysed in Triton lysis buffer (20 mM Tris-HCl, pH 7.4; 150 mM NaCl; 0.5% Triton X-100 with protease inhibitor cocktail). LEC lysates (250 μg in 500 μL lysis buffer supplemented with 10 mM MgCl2) were incubated with 40 μL (50% slurry) of agarose-conjugated lectins (4° C., overnight). Beads were pelleted by centrifugation at 3000 rpm for 1 min. Non-specific binding proteins were removed by washing the beads with Triton lysis buffer once and PBS twice. Supernatants were discarded; bound proteins were eluted by boiling the beads with 20 μL of 2× Laemmli sample buffer for 7 min, and examined by western blotting.
Next, a series of examples were performed to determine whether VEGF-C-induced lymphangiogenesis is dependent on Gal-8. To determine whether VEGFR-3 is a Gal-8-binding protein, LEC lysates were incubated with Gal-8-conjugated agarose beads in the presence or absence of 0.1 M of lactose (an inhibiting sugar) or sucrose (a non-inhibiting sugar). Bound proteins were examined and were compared to total cell lysates (input) by western blot using anti-VEGFR-3 antibody. Three forms of VEGFR-3 (125 kDa, 175 kDa and 195 kDa) were detected in total cell lysates (FIG. 5A) (Bando, H., et al. 2004. Int J Cancer 111:184-191.). […] Having shown that Gal-8 binds to VEGFR-3 in LECs and that the carbohydrate-binding activity of Gal-8 is required for the synergistic effect of Gal-8 on VEGF-C-induced LEC sprouting, it was of interest to determine whether VEGFR-3 bears 3′-sialylated glycans.

PDPN = biological target: T1, PDPN (Homo sapiens, UniProt Q86YL7); test: Affinity precipitation assay, PDPN; assay type: binding; settings: for inhibition of binding of PDPN to Gal-8: 0.1 M sugar; for binding of PDPN (in words): galectin-conjugated agarose beads, LEC lysates
T1 construct: Within the whole cell lysate, an anti-PDPN-reactive 43-kDa component was detected; host or cells: primary lymphatic endothelial cells (LECs)
T1 sequence (Q86YL7 23-162): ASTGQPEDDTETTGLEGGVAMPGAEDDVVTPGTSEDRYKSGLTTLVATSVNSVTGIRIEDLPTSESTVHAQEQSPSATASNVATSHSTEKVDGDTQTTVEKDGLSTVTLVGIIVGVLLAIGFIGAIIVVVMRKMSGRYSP
Protocol: as §1
To determine whether PDPN binds to Gal-8 in a carbohydrate-dependent manner, LEC lysates were incubated with Gal-8-conjugated to agarose beads in the presence or absence of 0.1 M of lactose (an inhibiting sugar) or sucrose (a non-inhibiting sugar). Bound proteins were examined with total cell lysates (input) by western blot using an anti-PDPN antibody. To determine specificity of PDPN binding to Gal-8, LEC lysates were also incubated with agarose beads conjugated to Gal-1, Gal-3 and Gal-7. Within the whole cell lysate, an anti-PDPN-reactive 43-kDa component was detected (FIG. 7A).

[1] = test system: Gal-8-induced LEC sprouting; test: LEC sprouting assay: Gal-8-induced sprouting with inhibitors or knockdown; assay type: cell-based, human
Protocol: LEC spheroids were generated by seeding primary LECs at passage 4 or 5 in each well of 384-well hanging-drop plates (3D Biomatrix) in complete EGM-2 MV medium containing 0.25% methyl cellulose according to the manufacturer's instructions (750 cells/well). After 18 hours, LEC spheroids were collected, resuspended in serum-free EBM-2 basal medium, and mixed with collagen solution (PureCol collagen, Advanced BioMatrix, 2.2 mg/ml in M199 medium, pH adjusted to 7.4 with NaHCO3 and NaOH). Aliquots of the LEC spheroid/collagen mixture (250 μl/well of 48-well plate) were incubated in the presence or absence of various test agents for 24 hr. At the end of the incubation period, spheroids were stained with Calcein AM (Invitrogen, 1 μg/mL, 37° C., and 30 min). Fluorescent images were acquired using the EVOS FL cell imaging system, pixels were inverted for better visualization and cumulative length of each sprout was calculated. Results were expressed as fold change compared to corresponding controls. […] Test agents used included thiodigalactoside (10 to 50 mM, Carbosynth), 3′-sialyl lactose (2 to 10 mM, Carbosynth), 6′-sialyl lactose (2 to 10 mM, Carbosynth), LY294002 (20 μM, Abeam), U0126 (20 μM, Abeam), PD0325901 (1 μM, Selleckchem), human VEGFR-3-Fc chimera (10 μg/ml, R&D), human VEGFR-2-Fc chimera (10 μg/ml, R&D), Avastin (10 μg/ml, bevacizumab, Genentech/Roche), human control IgG (10 μg/ml, Southern Biotech), anti-human podoplanin functional grade antibody (10 μg/ml, eBioscience), and rat IgG2a κ isotype control functional grade antibody (10 μg/ml, eBioscience).
To determine the role of these pathways on Gal-8-induced lymphangiogenesis, LEC spheroids were stimulated with Gal-8 (0.75 μM) in the presence or absence of PI3K inhibitor (LY294002, 20 μM) and two different MEK inhibitors (U0126, 20 μM; PD0325901, 1 μM). After overnight treatment with Gal-8, accumulated sprout lengths were quantified.

[2] = test system: VEGF-C-induced LEC sprouting; test: LEC sprouting assay: VEGF-C-induced sprouting; assay type: cell-based, human; settings: VEGF-C 50 ng/ml, 24 h
Protocol: (§2) LEC spheroids were generated by seeding primary LECs at passage 4 or 5 in each well of 384-well hanging-drop plates (3D Biomatrix) in complete EGM-2 MV medium containing 0.25% methyl cellulose according to the manufacturer's instructions (750 cells/well). After 18 hours, LEC spheroids were collected, resuspended in serum-free EBM-2 basal medium, and mixed with collagen solution (PureCol collagen, Advanced BioMatrix, 2.2 mg/ml in M199 medium, pH adjusted to 7.4 with NaHCO3 and NaOH). Aliquots of the LEC spheroid/collagen mixture (250 μl/well of 48-well plate) were incubated in the presence or absence of various test agents for 24 hr. At the end of the incubation period, spheroids were stained with Calcein AM (Invitrogen, 1 μg/mL, 37° C., and 30 min). Fluorescent images were acquired using the EVOS FL cell imaging system, pixels were inverted for better visualization and cumulative length of each sprout was calculated. Results were expressed as fold change compared to corresponding controls. It was observed that sprout lengths vary from passages to passages. Test agents used included thiodigalactoside (10 to 50 mM, Carbosynth), 3′-sialyl lactose (2 to 10 mM, Carbosynth), 6′-sialyl lactose (2 to 10 mM, Carbosynth), LY294002 (20 μM, Abeam), U0126 (20 μM, Abeam), PD0325901 (1 μM, Selleckchem), human VEGFR-3-Fc chimera (10 μg/ml, R&D), human VEGFR-2-Fc chimera (10 μg/ml, R&D), Avastin (10 μg/ml, bevacizumab, Genentech/Roche), human control IgG (10 μg/ml, Southern Biotech), anti-human podoplanin functional grade antibody (10 μg/ml, eBioscience), and rat IgG2a κ isotype control functional grade antibody (10 μg/ml, eBioscience).
In this assay, the LEC spheroids were treated with VEGF-C (50 ng/ml) in the presence or absence of 0.75 μM of Gal-8 for 24 hours, and then accumulated sprout lengths were quantified. […] Synergistic effect of Gal-8 on VEGF-C-induced LEC sprouting was dose-dependent. […] At concentrations >0.5 μM Gal-8, there was no further increase in the degree of VEGF-C-induced lymphangiogenesis (FIG. 4C).
To further characterize the role of carbohydrate-mediated recognition in VEGF-C-induced lymphangiogenesis, LEC spheroids were stimulated with VEGF-C (50 ng/ml) in the presence or absence of three different galectin inhibitors. […] Therefore, the data establishes the critical role of Gal-8-mediated carbohydrate-mediated recognition in VEGF-C-induced lymphangiogenesis.

LEC spheroids = test: LEC sprouting assay: stimulation by galectins alone; assay type: cell-based, human; settings: 24 hours
Protocol: as §2
To assess the effect of galectins on LEC sprouting, LEC spheroids were embedded in a collagen matrix and incubated with media containing various test agents. After 24 hours, the cumulative length of the sprouts for each spheroid was quantified by ImageJ. […] Multiple approaches were used to determine whether the stimulatory effect of Gal-8 on LEC sprouting was carbohydrate-dependent.

[3] = Gal-8 0.75 μM, 24 h, TDG 20 mM, LY294002 20 μM, U0126 20 μM, PD0325901 1 μM, Avastin 10 μg/ml, Obtustatin 4 μM, antibodies 20 μg/ml, siRNA-transfected LECs

Molecule: N#CC(=C(/N)Sc1ccccc1N)/C(C#N)=C(\N)Sc1ccccc1N [U0126]
- effect on Gal-8-induced LEC sprouting (in words) [1]: markedly inhibited

Molecule: Obtustatin: a blocking peptide against integrin α1β1 (CTTGPCCRQCKLKPAGTTCWKTSLTSHYCTGKSCDCPLYPG) [reference compound]
- effect on Gal-8-induced LEC sprouting (in words) [1, 3]: inhibited
- effect on VEGF-C-induced LEC sprouting (in words) [2]: inhibited

Molecule: O=C(NOC[C@H](O)CO)c1ccc(F)c(F)c1Nc1ccc(I)cc1F [PD0325901]
- effect on Gal-8-induced LEC sprouting (in words) [1, 3]: markedly inhibited

Molecule: CC(=O)N[C@H]1[C@H]([C@H](O)[C@H](O)CO)O[C@@](O[C@H]2[C@@H](O)[C@@H](CO)O[C@@H](O[C@H]3[C@H](O)[C@@H](O)C(O)O[C@@H]3CO)[C@@H]2O)(C(=O)O)C[C@@H]1O (some centres unmarked) [3′-SL, 3′-sialyllactose]
- inhibition of Gal-8-induced LEC sprouting ([1]; at 2 mM concentration): 95%
- nH of inhibition of galectin-8-mediated LEC sprouting ([1]; galectin-8 at 0.75 μM): 3.38
- IC50 ([1]; galectin-8 at 0.75 μM, read-out: IC50 of the inhibitory effect on galectin-8-mediated LEC sprouting): 1.25 mM
- Ki ([1]; galectin-8 at 0.75 μM, read-out: Ki (Ki=IC50/(1+[A]/EC50))): 1.67 mM
- effect on VEGF-C-induced LEC sprouting (in words) [2]: inhibited

Molecule: CC(=O)N[C@H]1[C@H]([C@H](O)[C@H](O)CO)O[C@@](OC[C@H]2O[C@@H](O[C@H]3[C@H](O)[C@@H](O)[C@H](O)O[C@@H]3CO)[C@H](O)[C@@H](O)[C@H]2O)(C(=O)O)C[C@@H]1O [6′-SL, 6′-sialyl lactose]
- effect on Gal-8-induced LEC sprouting (in words) [1, 3]: had no effect

Molecule: Gal-8Q47A: Gal-8 mutant which has lost its ability to bind to α2,3-sialylated glycans
- promotion of LEC sprouting by the agent alone (in words) (LEC spheroids): not promote lymphangiogenesis

B1: VEGFR-3-Fc: human VEGFR-3-Fc chimera (protein)
chain: YSMTPPTLNITEESHVIDTGDSLSISCRGQHPLEWAWPGAQEAPATGDKDSEDTGVVRDCEGTDARPYCKVLLLHEVHANDTGSYVCYYKYIKARIEGTTAASSYVFVRDFEQPFINKPDTLLVNRKDAMWVPCLVSIPGLNVTLRSQSSVLWPDGQEVVWDDRRGMLVSTPLLHDALYLQCETTWGDQDFLSNPFLVHITGNELYDIQLLPRKSLELLVGEKLVLNCTVWAEFNSGVTFDWDYPGKQAERGKWVPERRSQQTHTELSSILTIHNVSQHDLGSYVCKANNGIQRFRESTEVIVHENPFISVEWLKGPILEATAGDELVKLPVKLAAYPPPEFQWYKDGKALSGRHSPHALVLKEVTEASTGTYTLALWNSAAGLRRNISLELVVNVPPQIHEKEASSPSIYSRHSRQALTCTAYGVPLPLSIQWHWRPWTPCKMFAQRSLRRRQQQDLMPQCRDWRAVTTQDAVNPIESLDTWTEFVEGKNKTVSKLVIQNANVSAMYKCVVSNKVGQDERLIYFYVTTIPDGFTIESKPSEELLEGQPVLLSCQADSYKYEHLRWYRLNLSTLHDAHGNPLLLDCKNVHLFATPLAASLEEVAPGARHATLSLSIPRVAPEHEGHYVCEVQDRRSHDKHCHKKYLSVQALEAPRLTQNLTDLLVNVSDSLEMQCLVAGAHAPSIVWYKDERLLEEKSGVDLADSNQKLSIQRVREEDAGRYLCSVCNAKGCVNSSASVAVEGSEDKGSMEI
modifications: left off: a dimerising Fc or GST
notes: human VEGFR-3-Fc chimera
- % inhibition of Gal-8-induced LEC sprouting ([1]; Gal-8 0.75 μM, 10 μg/ml, 24 hours): 37%
- effect on VEGF-C-induced LEC sprouting (in words) [2]: inhibited

Second part, led by results:

- inhibition of binding of VEGFR-3 to Gal-8 (VEGFR-3): not sucrose, a noncompeting sugar
- inhibition of binding of PDPN to Gal-8 (PDPN): not by sucrose
Molecule: OC[C@H]1O[C@@](CO)(O[C@H]2O[C@H](CO)[C@@H](O)[C@H](O)[C@H]2O)[C@@H](O)[C@@H]1O [sucrose, reference compound]

- inhibition of binding of VEGFR-3 to Gal-8 (VEGFR-3): inhibited
- inhibition of binding of PDPN to Gal-8 (PDPN): inhibited
Molecule: OC[C@H]1O[C@@H](O[C@H]2[C@H](O)[C@@H](O)C(O)O[C@@H]2CO)[C@H](O)[C@@H](O)[C@H]1O (some centres unmarked) [lactose, reference compound]

- binding of PDPN (in words) (PDPN): does not bind
Molecule: Gal-1: recombinant galectin-1
- promotion of LEC sprouting by the agent alone (in words) (LEC spheroids): not Gal-1, Gal-3 or Gal-7, promotes LEC sprouting
- effect on VEGF-C-induced LEC sprouting (in words) [2]: did not potentiate

- binding of PDPN (in words) (PDPN): does not bind
Molecule: Gal-7: recombinant galectin-7
- promotion of LEC sprouting by the agent alone (in words) (LEC spheroids): not Gal-1, Gal-3 or Gal-7, promotes LEC sprouting
- effect on VEGF-C-induced LEC sprouting (in words) [2]: did not potentiate

- binding of PDPN (in words) (PDPN): does not bind
Molecule: Gal-3: recombinant galectin-3
- promotion of LEC sprouting by the agent alone (in words) (LEC spheroids): not Gal-1, Gal-3 or Gal-7, promotes LEC sprouting
- effect on VEGF-C-induced LEC sprouting (in words) [2]: did not potentiate
